The results in this text go back to patent US10457976B2, “Preparing antibodies from CHO cell cultures for conjugation” (SEATTLE GENETICS, INC., priority 2013, dated 2019).

For the assay, the system named is QSOX1 sulfhydryl oxidase (oxidizing activity in lot DEVNKB-1). Kind of assay: Sulfhydryl oxidizing activity of lot DEVNKB-1 with additives (ferrous oxidation xylenol orange, FOX, assay). The assay is classed as biochemical, Chinese hamster. The protocol:
Further to characterize the oxidizing activity in lot DEVNKB-1, the lot was tested for sulfhydryl oxidizing activity using the ferrous oxidation xylenol orange (FOX) assay. Sulfhydryl oxidases catalyze the following reaction: 2R—SH+O2→R—S—S—R+H2O2 As the reaction proceeds, oxygen is consumed and hydrogen peroxide is produced. The hydrogen peroxide by-product can be detected readily and reliably, and thus serves as a proxy for sulfhydryl oxidase activity. In the FOX assay, hydrogen peroxide oxidizes ferrous iron (Fe^2+) to produce ferric iron (Fe^3+). The […] complexes with xylenol orange to form a compound that absorbs 560 nm light. Thus, by monitoring absorption of 560 nm light (e.g., using a spectrophotometer), the amount of sulfhydryl oxidizing activity in a sample can be determined. The value of a negative control is compared to the value of the test sample by determining the difference in the 560 nm reading. If the resulting value is greater than 0.1 absorbance units, then the samples is positive for oxidizing impurity. […] Addition of both DEVNKB-1 and 1 mM Zn^2+, however, was only 0.008. […] This is consistent with the oxidizing agent having a flavin-dependent sulfhydryl oxidase domain, such as QSOX1.
Further assays were performed to see whether EDTA could reverse the Zn^2+-dependent elimination of oxidizing activity in lot DEVNKB-1. In these experiments, Zn^2+ was added to the assay buffer, either with or without EDTA. In addition, assay buffer having EDTA was evaluated. […] Addition of both Zn^2+ and additional EDTA, however, reduced the oxidizing activity by only 6%. Thus, the EDTA effectively reversed the Zn^2+-dependent inhibition of oxidizing activity. Again, this is what is expected for an oxidizing agent that has a flavin-dependent sulfhydryl oxidase domain, such as QSOX1.

The mark [1] stands for this setting: Table 2, additive in assay buffer, with or without additional EDTA.
The mark [2] stands for this setting: Table 2, relative to assay buffer with additional EDTA (100%).

For the compound `O=C(O)CN(CCN(CC(=O)O)CC(=O)O)CC(=O)O` [EDTA], under setting [1], the “Difference (absorption without minus with DEVNKB-1)” value is on record as 0.572. Besides, under setting [2], the “% Activity” value amounted to 100%.

In the case of `[Zn+2]` [Zn2+], the “Difference (absorption without minus with DEVNKB-1)” value by setting is: (Table 1, additive 1 mM, 560 nm absorption) 0.0079; (Table 1, additive 1 mM, 560 nm absorption, listed as Zn^2+) 0.008; under setting [1], 0.03097. Also, the “% Activity” value is recorded as 1% (Table 1, additive 1 mM, relative to DEVNKB-1 without additive) and 5% under setting [2]. For the same compound, the “reduction of oxidizing activity associated with lot DEVNKB-1” value (relative to assay buffer that contained additional EDTA) was 95%.
